Data published in patent publication US20250289786A1, “CHLORINATED MONOCARBONYL CURCUMIN COMPOUNDS, PREPARATION METHOD, AND APPLICATION” (Southwest Medical University, priority 2024, published 2025).

What was measured:
[1] = Solubility detection of CAK01-CAK07; type: physicochemical
Description: The chlorinated monocarbonyl curcumin compounds CAK01-CAK07 prepared under the conditions of Example 1 were taken for nuclear magnetic resonance, mass spectrometry, solubility, and melting point detection.

PC12 cells [2] = experiment: MTT toxicity (safety evaluation) on PC12 nerve cells; type: cell-based
Method: The toxicity of each drug to PC12 cells was determined by MTT assay. The principle of the MTT colorimetric method: there is succinate dehydrogenase in the mitochondria of living cells, which can make exogenous MTT become blue-purple crystal formazan insoluble in water, this phenomenon cannot be observed in dead cells. The blue-purple crystal formazan can be dissolved by DMSO, and the absorbance value is measured by a microplate reader at a wavelength of 490 nm, which in turn reflects the number of living cells. […] The operation method is as follows:
The cells were resuscitated with DMEM high glucose medium containing 10% fetal bovine serum and cultured in a 5% CO2 cell incubator at 37° C., when the cells grew to the logarithmic growth phase, they were inoculated into a 96-well plate and cultured for 24 hours, each well was added with 100 μL of each compound solution at the corresponding gradient concentration (60, 30, 15, 7.5, 3.75 μM), after incubation in the incubator for 24 h or 48 h, 20 μL of MTT was added to continue incubation for 4 h, the supernatant was discarded and 150 μL of DMSO was added to dissolve the blue-purple crystals, after shaking for 10 min, the cell viability was detected by a microplate reader, and classified according to the cytotoxicity standard. The relevant calculation formula is as follows: […]

[3] = ABTS free radical capture ability; type: biochemical; settings: 20 min reaction in the dark
Method: 66.2 mg of K2S2O8 was weighed and placed in a 100 mL volumetric flask, pure water was added to the scale line to prepare a 2.45 mmol/L K2S2O8 solution. 192 mg of ABTS was accurately weighed and placed in a 25 mL volumetric flask, and the newly prepared K2S2O8 solution was added for dissolving and constant volume dilution, after standing in the dark for 20 h, the ABTS mother liquor was obtained. Before use, to make the measured value more accurate, the ABTS mother liquor needs to be diluted with a PBS solution of pH7.4 until the absorbance range of the ABTS working solution at 734 nm is 0.70±0.02.
Drug concentration screening: To avoid the complete removal of free radicals by excessive drug concentration and the inability to compare the ability to capture ABTS free radicals, a preliminary screening of drug concentration is required before the formal test. A gradient concentration of compound solution was prepared, and a gradient concentration of Vit C solution was prepared as a positive control. A total of 450 μL of ABTS working solution was accurately absorbed into a 1.5 mL EP tube, and 150 μL of the gradient solution of each group of drugs was added, after 20 min of reaction in the dark, 150 μL of the reaction solution was taken and placed in a 96-well plate, the absorbance was measured by a microplate reader. Three duplicate wells were set for each concentration, and the drug concentration with absorbance between 0.2-0.7 was selected for subsequent determination.
Determination operation: After the drug concentration screening was completed, 7 concentration gradient groups were set within this concentration range. A total of 450 μL of ABTS working solution was accurately absorbed into a 1.5 mL EP tube, and 150 μL of the gradient solution of each group of drugs was added. After 20 min of reaction in the dark, 150 μL of the reaction solution was taken and placed in a 96-well plate, the absorbance was measured by a microplate reader. Three duplicate wells were set for each concentration, the positive control group was a gradient solution of Vit C, and the blank control group was an equal volume of anhydrous ethanol.

[4] = test system: liver, heart, spleen, lung, and kidney tissues; experiment: HE staining safety evaluation of mouse tissues; type: in vivo; settings: kidney of mice, in words
[5] = test system: CUMS depression model mice; experiment: Open field test in CUMS depression model mice; type: in vivo, C57BL/6J mice; settings: 28 days, model 327.22±161.39 cm
Description: After one week of adaptive feeding, the newly purchased mice were divided into a blank group and CUMS model group. The mice in the blank group were not subjected to behavioral intervention and were fed normally. Mice in the model group were given 1-2 unpredictable behavioral stimuli every day. […] When the same stimulation is continuous, the stimulation method is changed to ensure that the same stimulation is not continuous, and the model construction period is 42 days.

[6] = test system: Nrf2, HO-1, BDNF, and TrkB in the hippocampus; experiment: Western blot of hippocampal proteins in CUMS depression model mice; type: in vivo; settings: low dose, in words
PC12 cells [7] = experiment: Inhibition of corticosterone (CORT)-induced PC12 cell damage; type: cell-based, rat; settings: 24 h
BV2 cells = experiment: NO release in LPS-induced BV2 cell stress; type: cell-based; settings: 1 μg/mL LPS; for NO release versus model group: 24 h, in words
Description: When the body is in a long-term stress and stress state, a large number of oxidizing substances and inflammatory factors accumulate in the body, causing depression and inducing depression-like symptoms. LPS is a pro-inflammatory substance, which can induce the increase of inflammatory factors, the accumulation of reactive oxygen species ROS and the release of NO in BV2 cells. The anti-inflammatory and antioxidant effects of drugs can be evaluated by establishing an LPS stress model.
NO detection: When BV2 cells grew to the logarithmic growth phase, they were inoculated in a 6-well plate at 1×10^6 cells/well and cultured for 24 h. Then the original medium was replaced with CAK06 fresh DMEM high glucose medium containing high (10 μM), medium (5 μM), and low (1 μM) concentrations, and three duplicate wells were set up in each group. After the cells were treated with compound CAK06 for 12 h, the supernatant of the culture medium was centrifuged and stained according to the instructions of the NO detection kit, and the absorbance was detected at a wavelength of 540 nm.

## COc1cc(/C=C2\CNC/C(=C\c3cc(Cl)c(O)c(OC)c3)C2=O)cc(Cl)c1O [CAK06, 3,5-bis ((E)-3-chloro-4-hydroxy-5-methoxybenzylidene) piperidin-4-one]
[1]
  solubility: 171.77 mg/100 g
PC12 cells [2]; 3.75-60 μM, 24 h and 48 h, in words
  cytotoxicity to PC12 cells: no significant cytotoxicity
PC12 cells [2]; PC12, 3.75 μM
  Rank (cytotoxicity standard) 24 h: 0
  Relative growth rate (%) 24 h: 98.50 ± 3.77%
  Rank (cytotoxicity standard) 48 h: 0
  Relative growth rate (%) 48 h: 100.05 ± 0.75%
PC12 cells [2]; PC12, 7.5 μM
  Rank (cytotoxicity standard) 24 h: 0
  Relative growth rate (%) 24 h: 100.42 ± 2.85%
  Rank (cytotoxicity standard) 48 h: 1
  Relative growth rate (%) 48 h: 92.97 ± 2.54%
PC12 cells [2]; PC12, 15 μM
  Rank (cytotoxicity standard) 24 h: 1
  Relative growth rate (%) 24 h: 98.55 ± 4.12%
  Rank (cytotoxicity standard) 48 h: 1
  Relative growth rate (%) 48 h: 88.82 ± 0.28%
PC12 cells [2]; PC12, 30 μM
  Rank (cytotoxicity standard) 24 h: 1
  Relative growth rate (%) 24 h: 94.56 ± 2.82%
  Rank (cytotoxicity standard) 48 h: 1
  Relative growth rate (%) 48 h: 93.60 ± 4.14%
PC12 cells [2]; PC12, 60 μM
  Rank (cytotoxicity standard) 24 h: 0
  Relative growth rate (%) 24 h: 114.78 ± 1.81%
  Rank (cytotoxicity standard) 48 h: 0
  Relative growth rate (%) 48 h: 109.26 ± 4.07%
[3]
  IC50 values of ABTS captured: 44.95 µg/mL
[4]
  HE staining pathology of tissues: basically normal
[5]; 10 mg/kg oral once a day
  overall activity distance in the open field test: 868.90±280.97 cm
[5]; 20 mg/kg oral once a day
  overall activity distance in the open field test: 1336.66±264.87 cm
[6]
  expression of antioxidant-related proteins Nrf2 and HO-1: better expression than the Flu group
PC12 cells [7]; 60 μM drug with 514.6 μM CORT
  relative cell proliferation rate: 66.95±0.97%
PC12 cells [7]; 3.75-60 μM drug with 514.6 μM CORT, in words
  effect on viability of CORT-damaged PC12 cells: time-dependent and concentration-dependent cell protection
BV2 cells; 1 μM (low), 12 h, 540 nm, model 0.153, blank 0.080
  absorbance (NO release): 0.145
BV2 cells; 1 μM (low)
  NO release versus model group: no significant difference
BV2 cells; 5 μM (medium)
  NO release versus model group: significantly improved
BV2 cells; 10 μM (high)
  NO release versus model group: significantly improved
